Experiment [1] deals with HCT116 cells. Briefly: MTT assay. It counts as cell-based. As to conditions: Homo sapiens. Summed up: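 Cells plated one day before dosing, then exposed to compound 72 h at 37 °C, 5% CO2. MTT at 0.5 mg/ml final for 4 h, solubilized in DMF/SDS buffer pH 4.7; OD converted to cell number from a standard growth curve.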
For orientation: Tetrazolium assays rely on reduction of a dye to a coloured formazan, in cell work by metabolically active cells.

Experiment [2] deals with acetyl-H3 in T24 human bladder cancer cells. In words: Histone H3 acetylation assay (anti-acetyl-H3, Amplex-Red fluorescence, normalized to Alamar Blue). It counts as cell-based. As to conditions: T-24, 16 h incubation, read-out: H3 Ac t24. As for the experimental part: T24 human bladder cancer cells growing in culture are incubated with HDAC inhibitors for 16 h. Cell viability is determined by adding 10 μl Alamar Blue (BioSource, DAL1100). Cells are washed once with PBS and fixed with methanol precooled to −20° C. for 10 min. The cells are then washed twice in PBS. The fixed cells are blocked with 50 μl of PBS+0.1% Triton X-100. Cells are probed with rabbit-anti-acetyl-H3 (Upstate #06-599) as the primary antibody and then with goat-anti-rabbit-HRP (Sigma #A-0545) as the secondary antibody. Fluorescence is read by fluorometer at Ex: 550, Em: 610, Cutoff: 590 (Auto PMT, 15 reads/well) after addition of Amplex-Red. Fluorescence signal is normalized against cell viability derived from Alamar Blue. Maximum acetylation signal of MS-275 (fluorescence unit) is measured as Emax.
In general terms: The colour change of resazurin is a common sign of viable cells or microbes.

The target of experiment [3] is HDAC-1 (Homo sapiens, UniProt Q13547). In words: Human HDAC-1 enzyme inhibition, Assay 2 (Boc-Lys(Ac)-AMC, Fluor-de-Lys fluorescence; compounds 604-617). It counts as biochemical. As to conditions: read-out: HDAC1 IC50. The protocol:
Assay 2. The following protocol was also used to assay the compounds of the invention. In the assay, the buffer used was 25 mM HEPES, pH 8.0, 137 mM NaCl, 2.7 mM […], 1 mM MgCl2 and the substrate was Boc-Lys(Ac)-AMC in a 50 mM stock solution in DMSO. The enzyme stock solution was 4.08 μg/mL in buffer. The compounds were pre-incubated (2 μl in DMSO diluted to 13 μl in buffer for transfer to assay plate) with enzyme (20 μl of 4.08 μg/ml) for 10 minutes at room temperature (35 μl pre-incubation volume). The mixture was pre-incubated for 5 minutes at room temperature. The reaction was started by bringing the temperature to 37° C. and adding […] substrate. Total reaction volume was 50 μl. […] A plate was incubated in the dark for 10 minutes at room temperature before reading (λEx=360 nm, λEm=470 nm, Cutoff filter at 435 nm). Assay 2 was used to measure HDAC activity of compounds 604-617 (Table 5). HDAC activity of the remaining compounds was measured by assay 1.

For experiment [4], the system named is HCT116 human colorectal carcinoma cells. In words: Antitumor activity in HCT116 human colorectal tumor xenograft model in vivo. The arrangement: species or system BALB/c nude mice. As to conditions: Mus musculus, ip; HCT 116 colorectal tumor model, 20 mg/kg i.p.; read-out: % Inhibition of Tumor Growth. The protocol:
Eight to ten week old female BALB/c nude mice (Taconic Labs, Great Barrington, N.Y.) were injected subcutaneously in the flank area with 2×10^6 preconditioned HCT116 human colorectal carcinoma cells. Preconditioning of these cells was done by a minimum of three consecutive tumor transplantations in the same strain of nude mice. Subsequently, tumor fragments of approximately 30 mgs were excised and implanted subcutaneously in mice, in the left flank area, under Forene anesthesia (Abbott Labs, Geneve, Switzerland). When the tumors reached a mean volume of 100 mm^3, the mice were treated intravenously, subcutaneously, or intraperitoneally by daily injection, with a solution of the histone deacetylase inhibitor in an appropriate vehicle, such as PBS, DMSO/water, or Tween 80/water, at a starting dose of 10 mg/kg. The optimal dose of the HDAC inhibitor was established by dose response experiments according to standard protocols. Tumor volume was calculated every second day post infusion according to standard methods (e.g., Meyer et al., Int. J. Cancer 43: 851-856 (1989)). […] FIGS. 2-10 show the results of additional compounds tested.
In general terms: A xenograft is tissue or cells of one species grown in another, often human tumour cells in immunodeficient mice.

Experiment [5] deals with T1, cloned recombinant human HDAC-1 (Homo sapiens, UniProt Q13547).
T1 construct: made in house; host or cells: Baculovirus insect cell expression system
T1 sequence (Q13547 whole entry): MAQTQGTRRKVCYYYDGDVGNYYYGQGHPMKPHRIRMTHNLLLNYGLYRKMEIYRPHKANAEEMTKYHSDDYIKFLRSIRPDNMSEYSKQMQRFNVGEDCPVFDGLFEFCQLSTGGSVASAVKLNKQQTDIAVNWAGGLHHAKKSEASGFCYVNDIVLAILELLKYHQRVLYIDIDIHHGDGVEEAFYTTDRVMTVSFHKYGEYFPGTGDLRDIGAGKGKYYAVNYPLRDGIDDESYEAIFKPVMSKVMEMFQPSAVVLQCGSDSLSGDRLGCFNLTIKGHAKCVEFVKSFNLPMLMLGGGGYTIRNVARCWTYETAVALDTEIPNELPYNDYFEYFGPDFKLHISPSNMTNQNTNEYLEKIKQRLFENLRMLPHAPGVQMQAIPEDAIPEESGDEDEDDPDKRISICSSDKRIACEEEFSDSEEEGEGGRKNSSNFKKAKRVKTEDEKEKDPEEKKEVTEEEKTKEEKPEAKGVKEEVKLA
Briefly: Human HDAC-1 enzyme inhibition, Assay 1 ([3H]-acetylated histone substrate, scintillation counting). As to conditions: Table 5E; read-out: Human HDAC-1 IC50. It counts as biochemical. Summed up:
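Recombinant human HDAC-1 from baculovirus-infected insect cells, preincubated with compound 30 min at 4° C. before reaction. Released [3H]-acetic acid extracted with ethyl acetate and counted by scintillation. IC50 taken from dose-response curves as concentration giving half-maximal inhibition.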

Experiment [6] concerns acetylated histone H-4 in T24 human bladder cancer cells. In words: Histone H4 acetylation in whole cells by immunoblots. It counts as cell-based. As to conditions: T-24, Table 5E, 16 h, read-out: H4 Ac (T24) EC50. Summed up: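 T24 cells were treated with HDAC inhibitors for 16 h; […] total histone protein was resolved by SDS/PAGE and immunoblotted with polyclonal anti-acetylated H4 antibody. ECL detection, with signal quantified by densitometry.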

Chain of HDAC-1 (Q13547 whole entry): as above

In the case of `Nc1ccccc1NC(=O)c1ccc(N2CC[C@@H](Nc3cccnc3)C2)cc1` [compound 605, (R)-N-(2-aminophenyl)-4-(3-(pyridin-3-ylamino)pyrrolidin-1-yl)benzamide], the half-maximal inhibitory concentration (IC50) – broadly, the concentration at which inhibition is half-maximal – in experiment [1] (HCT-116, HCT116 cells) was 3 µM; in experiment [3], 0.3 µM. In experiment [2], the EC50 turned out to be 12 µM.
For `COc1cc(O[C@H]2CCN(c3ccc(C(=O)Nc4ccccc4N)cc3)C2)cc(OC)c1OC` [compound 613, (S)-N-(2-aminophenyl)-4-(3-(3,4,5-trimethoxyphenoxy)pyrrolidin-1-yl)benzamide], in that order: 0.3 µM, 0.09 µM and 1 µM.
As for `Nc1ccccc1NC(=O)c1ccc(N2CC[C@H](Oc3ccc4c(c3)OCO4)C2)cc1` [compound 614, (S)-N-(2-aminophenyl)-4-(3-(benzo[d][1,3]dioxol-5-yloxy)pyrrolidin-1-yl)benzamide], the IC50 was 8 µM in experiment [1] (HCT-116, HCT116 cells) and 0.1 µM in experiment [3]. Further, the EC50 in experiment [2] worked out at 1 µM.
Regarding `Nc1ccccc1NC(=O)c1ccc(N2CC[C@H](Oc3cccnc3)C2)cc1` [compound 606, (S)-N-(2-aminophenyl)-4-(3-(pyridin-3-yloxy)pyrrolidin-1-yl)benzamide], the 50% inhibitory concentration (IC50) in experiment [1] (HCT-116, HCT116 cells) is 0.7 µM; in experiment [3] it was 0.4 µM. Moreover, the EC50 in experiment [2] stood at 7 µM.
For `Nc1ccccc1NC(=O)c1ccc(Cn2cnc3ccccc3c2=O)cc1` [Cpd 154, N-(2-Amino-phenyl)-4-(4-oxo-4H-quinazolin-3-ylmethyl)-benzamide], the IC50 in experiment [1] (HCT-116, 72 h, Table 5E, HCT116 cells, 72 hours) was 0.4 µM; in experiment [5] it was 0.3 µM. Moreover, the inhibition in vivo at 20 mg/kg in experiment [4] was 23%. In addition, the EC50 in experiment [6] was less than 1 µM.
In the case of `Nc1ccccc1NC(=O)c1ccc(N2CC[C@H](Nc3ccccc3)C2)cc1` [compound 608, (S)-N-(2-aminophenyl)-4-(3-(phenylamino)pyrrolidin-1-yl)benzamide], the IC50 came to 0.3 µM in experiment [1] (HCT-116, HCT116 cells) and 0.2 µM in experiment [3]. Also, the EC50 in experiment [2] is 0.2 µM.
In the case of `Nc1ccccc1NC(=O)c1ccc(N2CC[C@H](Sc3ccccn3)C2)cc1` [compound 617, (S)-N-(2-aminophenyl)-4-(3-(pyridin-2-ylthio)pyrrolidin-1-yl)benzamide], the IC50 in experiment [1] (HCT-116, HCT116 cells) turned out to be 0.7 µM; in experiment [3], 0.23 µM. Moreover, the EC50 in experiment [2] worked out at 2 µM.
For `Nc1ccccc1NC(=O)c1ccc(N2CC[C@H](Nc3cccnc3)C2)cc1` [compound 604, (S)-N-(2-aminophenyl)-4-(3-(pyridin-3-ylamino)pyrrolidin-1-yl)benzamide], in that order: 0.8 µM, 0.06 µM and 8 µM.

The values above are taken from patent US7868204B2, “Inhibitors of histone deacetylase” (MethylGene Inc., priority 2001, dated 2011).
